Test results reported in publication PMC4554599 (Bipolar disorders, 2014).

Tests used:
[1] = molecular target: T1, acyl-CoA synthetase-4 (Acsl4) (Rattus norvegicus, UniProt O35547); type: biochemical
[2] = molecular target: T1, acyl-CoA synthetase-4 (Acsl4); assay: Michaelis-Menten kinetics, […]AA to AA-CoA conversion; type: biochemical

T1 sequence (O35547 whole entry): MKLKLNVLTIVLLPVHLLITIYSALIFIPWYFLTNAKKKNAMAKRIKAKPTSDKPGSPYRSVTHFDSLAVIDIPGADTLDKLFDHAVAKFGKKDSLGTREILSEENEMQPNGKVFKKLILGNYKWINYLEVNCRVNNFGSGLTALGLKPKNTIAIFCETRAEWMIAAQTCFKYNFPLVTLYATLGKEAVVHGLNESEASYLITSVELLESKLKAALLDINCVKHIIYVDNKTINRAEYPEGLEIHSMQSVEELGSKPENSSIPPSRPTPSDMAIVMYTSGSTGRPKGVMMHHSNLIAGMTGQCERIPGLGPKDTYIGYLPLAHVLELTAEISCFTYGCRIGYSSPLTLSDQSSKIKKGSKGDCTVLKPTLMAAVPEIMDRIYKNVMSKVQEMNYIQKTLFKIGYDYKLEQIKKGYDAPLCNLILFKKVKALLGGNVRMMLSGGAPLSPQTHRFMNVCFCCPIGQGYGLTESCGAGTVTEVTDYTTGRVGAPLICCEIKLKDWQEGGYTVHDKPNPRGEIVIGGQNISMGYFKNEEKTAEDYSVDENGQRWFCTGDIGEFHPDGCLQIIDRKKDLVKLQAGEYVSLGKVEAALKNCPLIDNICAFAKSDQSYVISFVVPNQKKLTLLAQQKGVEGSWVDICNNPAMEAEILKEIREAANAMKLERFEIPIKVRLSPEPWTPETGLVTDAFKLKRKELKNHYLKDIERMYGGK

| Ki [1] | SMILES | Km [2] |
| --- | --- | --- |
| 6.38 ± 0.63 mM | CCC(C)C(CC)C(N)=O (racemic) [VCD, 2-ethyl-3-methyl pentanamide] |  |
|  | CCCCC/C=C\C/C=C\C/C=C\C/C=C\CCCC(=O)O [AA, arachidonic acid] | 4.63 ± 0.67 µM |
